Here are results for five molecules from patent publication US12256733B2, “Antimicrobial mixture containing 4-(3-ethoxy-4-hydroxyphenyl)butan-2-one and an acid or silver-based compound, and cosmetic composition containing same” (L'OREAL, priority 2018, dated 2025).

Holding throughout (assay): Synergistic antimicrobial activity as MIC, 96-well microplate, optical density at 620 nm
Type in all cases: cell-based

Assay [1] has as its system Candida albicans ATCC 10231. The source says: (§1) 1] with: • MIC of A with B: minimum concentration of product A in the combination A+B which makes it possible to obtain an inhibitory effect; • MIC of B with A: minimum concentration of product B in the combination A+B which makes it possible to obtain an inhibitory effect; • MIC of A: minimum inhibitory concentration of product A alone; • MIC of B: minimum inhibitory concentration of product B alone. This formula was described for the first time in the article by F. C. Kull, P. C. Eisman, H. D. Sylwestrowka, and R. L. Mayer, Applied Microbiology 9:538-541, 1961.
(§2) When the FIC index value is less than or equal to 1, it is considered that the combination of test compounds has a synergistic effect.
The microbial strain Candida albicans ATCC 10231, and a double-concentration Sabouraud broth liquid culture medium were used (i.e. a mixture of 5 g of Phytagel+0.6 g Tween 40+60 g of Sabouraud broth).
(§3) A 96-well microplate at an incubation temperature of 32.5° C. is used.
(§4) The incubation time of the microplate is: • from 24 to 30 h under aerobic conditions for microbial Aspergillus niger ATCC 6275; • from 18 to 24 h under aerobic conditions for Candida albicans ATCC 10231, Pseudomonas aeruginosa ATCC 9027 and Staphylococcus aureus ATCC 6538; • from 24 to 48 h under aerobic conditions for Enterococcus faecalis ATCC 33186. Tests
(§5) A 10% (weight/volume) stock solution was prepared by mixing 1 g of compound in 9 ml of aqueous 1‰ agar solution. Successive dilutions were made with the 1‰ agar solution.
(§6) 50 μl of each of the daughter solutions obtained containing compound A or B are added to the microplate wells. 100 μl of Sabouraud liquid nutrient broth inoculated at double concentration with the Aspergillus niger strain and 50 μl of aqueous 1‰ agar solution are also added thereto.
(§7) 50 μl of each of the daughter solutions obtained containing compound A and 50 μl of each of the daughter solutions obtained containing compound B are added to the microplate wells. 100 μl of Sabouraud liquid nutrient broth inoculated at double concentration with the strain Aspergillus niger are also added thereto.
(§8) A positive microbial growth control was also prepared. The positive microbial growth control corresponds to a mixture of 100 μl of aqueous 1‰ agar solution with 100 μl of Sabouraud liquid nutrient broth inoculated at double concentration with the strain Aspergillus niger in the absence of compounds A and B.
(§9) An absorbance control was performed in parallel on compounds A and B alone. This control corresponds to 100 μl of double concentration sterile Sabouraud liquid nutrient broth+100 μl of double concentration compound A or B.
(§10) In the three cases (absorbance control, growth control and test), the final volume present in each of the microplate wells is 200 μl.
(§11) The test as described above (tests, absorbance control and growth control) was performed again to test the combination A+B on the following strains Enterococcus faecalis, Staphylococcus aureus, Pseudomonas aeruginosa, Candida albicans, where appropriate.

Assay [2] relates to Staphylococcus aureus ATCC 6538.
Description: as §1, §2
The microbial strain Staphylococcus aureus ATCC 6538 and a double-concentration nutrient broth liquid culture medium were used.
as §3, §4, §5, §6, §7, §8, §9, §10
(§12) In the two cases (test and control), the inoculum represents the concentration of the Aspergillus niger strain present in the final volume of the wells (200 μl) and is between 2 and 6×10^5 cfu/ml of Aspergillus niger.
as §11
The following results were obtained with the compound B1=trisodium salt of ethylenediaminedisuccinic acid (as an aqueous solution at 30% by weight): sold under the name Natrlquest E30 by the company Innospec Active Chemicals.

For assay [3], the system named is Aspergillus niger ATCC 6275.
Description: as §1
The microbial strain Aspergillus niger ATCC 6275, and a double-concentration Sabouraud broth liquid culture medium supplemented with polyoxyethylenated (20 OE) sorbitan monopalmitate (Tween 40 from Croda) and Phytagel© BioReagent were used (i.e. a mixture of 5 g of Phytagel+0.6 g of Tween 40+60 g of Sabouraud broth).
as §3, §4, §5, §6, §7, §8, §9, §10, §12

Assay [4] relates to Enterococcus faecalis ATCC 33186.
Description: as §1
The microbial strain Enterococcus faecalis ATCC 33186 and a double-concentration BHI (Brain Heart Infusion) broth liquid culture medium were used.
as §3, §4, §5, §6, §7, §8, §9, §10, §11

The mark [5] stands for this setting: 0.0625% A alone (active material weight %).
Setting [6] is: first concentration with growth <= 25%.

As for `CCOc1cc(CCC(C)=O)ccc1O` [A, 4-(3-ethoxy-4-hydroxyphenyl)butan-2-one], the microbial growth percentage in assay [1] (setting [5]) was 76%; in assay [1] (0.125% A alone), 64%; in assay [1] (0.25% A alone), 36%; in assay [1] (0.5% A alone), 5%; in assay [2] (setting [5]), 76%; in assay [2] (0.125% A alone), 72%. For the same molecule, the microbial growth percentage is reported as 71% in assay [2] (0.25% A alone); 40% in assay [2] (0.5% A alone); −23% in assay [2] (1% A alone); 44% in assay [3] (0.025% A alone (weight %)); 32% in assay [3] (0.05% A alone); 13% in assay [3] (0.1% A alone). The microbial growth percentage is reported as 31% in assay [4] (setting [5]), 36% in assay [4] (0.125% A alone), 39% in assay [4] (0.25% A alone) and −9% in assay [4] (0.5% A alone). For the same molecule, the “% MIC of A alone” value amounted to 0.5% in assay [1] (setting [6]), 1% in assay [2] (setting [6]) and 0.1% in assay [3] (setting [6]). For the same molecule, the “MIC of product alone” value in assay [4] (setting [6]) is listed as 0.5%.

`O=C([O-])C[C@H](NCCN[C@@H](CC(=O)[O-])C(=O)O)C(=O)[O-].[Na+].[Na+].[Na+]` [B1, trisodium salt of ethylenediaminedisuccinic acid]: the microbial growth percentage in assay [2] (0.0375% B1 alone) came to 97%; in assay [2] (0.075% B1 alone), 80%; in assay [2] (0.15% B1 alone), 66%; in assay [2] (0.3% B1 alone), 37%; in assay [2] (0.6% B1 alone), 1%. Also, in assay [2] (setting [6]), the “% MIC of B1 alone” value is 0.6%.

For the molecule `CCCCCC1C(O)CCC1CC(=O)[O-].[Na+]` (stereo not drawn) [B2, sodium salt of 3-hydroxy-2-pentylcyclopentaneacetic acid], the microbial growth percentage came to 43% in assay [1] (0.34% B2 alone) and 6% in assay [1] (0.68% B2 alone). Further, the “% MIC of B2 alone” value in assay [1] (setting [6]) came to 0.68%.

Regarding `O=C([O-])CNCO.[Na+]` [B4, sodium hydroxymethylglycinate], the microbial growth percentage in assay [4] (0.005% B4 alone) was 32%; in assay [4] (0.01% B4 alone), 11%. Moreover, the “% MIC of B4 alone” value in assay [4] (setting [6]) is 0.1%.

Consider silver citrate hydrate [B3], for which the figures for the microbial growth percentage in assay [3] (0.025% B3 alone), in assay [3] (0.05% B3 alone) and in assay [3] (0.1% B3 alone) were 47%, 40% and 9%, respectively. Besides, the “% MIC of B3 alone” value in assay [3] (setting [6]) is 0.1%.
